Our source for the inhibition values is ChEMBL document CHEMBL1159076, “Toosendanin: synthesis of the AB-ring and investigations of its anti-botulinum properties (Part II)” (Bioorg Med Chem, 2010).

Assay [1] has as its target Botulinum neurotoxin type A (Clostridium botulinum (strain Hall / ATCC 3502 / NCTC 13319 / Type A)) (UniProt P0DPI1). The assay is described as follows: Inhibition of Clostridium botulinum strain Hall A hyper botulinum neurotoxin type A1 in rat spinal cord cells assessed as intact SNAP25 protein level at 1 mM after 24 hrs by Western blot using monoclonal anti-SNAP25 antibody. The class given is cell-based. For orientation: Immunoblotting shows a protein as a band on a membrane.

Assay [2] shares this target. The assay is described as follows: Inhibition of Clostridium botulinum strain Hall A hyper botulinum neurotoxin type A1 in rat spinal cord cells assessed as intact SNAP25 protein level at 200 uM after 24 hrs by Western blot using monoclonal anti-SNAP25 antibody. It counts as cell-based.

Activity calls are given as the source filed them. The rule behind the calls is not given here.

Chain of Botulinum neurotoxin type A (Clostridium botulinum (strain Hall / ATCC 3502 / NCTC 13319 / Type A)) (P0DPI1 2-448 limits assumed): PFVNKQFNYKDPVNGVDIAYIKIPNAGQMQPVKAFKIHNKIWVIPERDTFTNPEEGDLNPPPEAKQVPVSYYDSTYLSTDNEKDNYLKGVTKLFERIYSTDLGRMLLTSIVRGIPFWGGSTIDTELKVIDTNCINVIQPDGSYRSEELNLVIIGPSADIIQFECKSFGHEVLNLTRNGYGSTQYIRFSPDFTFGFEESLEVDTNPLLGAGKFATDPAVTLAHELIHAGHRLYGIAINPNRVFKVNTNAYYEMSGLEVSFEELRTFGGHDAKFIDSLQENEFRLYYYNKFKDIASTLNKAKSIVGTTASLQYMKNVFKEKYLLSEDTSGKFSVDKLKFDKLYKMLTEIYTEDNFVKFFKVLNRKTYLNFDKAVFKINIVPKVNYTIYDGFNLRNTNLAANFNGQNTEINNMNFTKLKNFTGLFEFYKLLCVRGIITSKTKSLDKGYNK

With `CC(=O)O[C@@H]1C[C@H](O)[C@]23CC[C@@H](O)C[C@H]2[C@H]1[C@H](O)OC3`, the inhibition result in assay [1] was “inactive”.
On to `CC(=O)O[C@@H]1C[C@H](O)[C@]23CC[C@H](O)C[C@H]2[C@H]1[C@H](O)OC3`, for which the inhibition result in assay [1] is “inactive”.
For `CC(=O)O[C@@H]1C[C@H](O)[C@@]23CO[C@@H](O)[C@]1(C)[C@@H]2C[C@@H](O)[C@]1(C)[C@@H]3C(=O)[C@H](OC(C)=O)[C@@]2(C)[C@H](c3ccoc3)C[C@H]3O[C@]321`, the inhibition entry in assay [2] is “Active”.
